In series [1] the test system is HT-29. Kind of series: Antiproliferative activity against human HT-29 cells assessed as inhibition of cell growth incubated for 48 hrs by CCK8 assay. The series is classed as functional. (In general: Tetrazolium dyes change colour on reduction, which living cells bring about.)
Series [2] addresses CDK9/cyclin T1 (Homo sapiens, UniProt P50750). Kind of series: Inhibition of His-tagged full length human recombinant CDK9/cyclinT1 using KTFCGTPEYLAPEVRREPRILSEEEQEMFRDFDYIADWC as substrate incubated for 60 mins by ADP-Glo kinase assay. The series is classed as protein-complex assay. Background: ADP-Glo turns the ADP formed in a reaction into a luminescent signal.
Series [3] deals with HCT-116. The series is described as follows: Antiproliferative activity against human HCT-116 cells assessed as inhibition of cell growth incubated for 48 hrs by CCK8 assay. The series is classed as functional.
The target in series [4] is CYP2C19 (Homo sapiens, UniProt P33261). Kind of series: Inhibition of CYP2C19 in human liver microsome at 10 uM pre-incubated with compound for 10 mins in presence of NADPH-regenerating system by LC-MS/MS analysis relative to control. Particulars: liver microsomes. The series is classed as ADME.
Chain of CYP2C19 (P33261 whole entry): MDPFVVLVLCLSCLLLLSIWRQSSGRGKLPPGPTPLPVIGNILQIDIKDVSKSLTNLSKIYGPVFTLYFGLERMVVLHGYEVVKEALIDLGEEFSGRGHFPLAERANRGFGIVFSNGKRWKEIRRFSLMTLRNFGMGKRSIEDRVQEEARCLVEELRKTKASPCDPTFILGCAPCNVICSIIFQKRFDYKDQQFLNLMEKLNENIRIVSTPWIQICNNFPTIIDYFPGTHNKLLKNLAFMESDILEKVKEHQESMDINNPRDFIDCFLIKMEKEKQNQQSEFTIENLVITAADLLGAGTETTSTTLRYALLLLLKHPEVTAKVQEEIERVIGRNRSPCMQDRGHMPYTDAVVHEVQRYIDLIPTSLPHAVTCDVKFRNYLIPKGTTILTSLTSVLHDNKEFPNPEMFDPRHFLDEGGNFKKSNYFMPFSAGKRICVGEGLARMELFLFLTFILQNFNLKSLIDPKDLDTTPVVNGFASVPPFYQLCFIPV
The nature of series [5]: Metabolic stability in human liver microsome assessed as half life at 100 uM pre-incubated with compound for 60 mins followed by NADPH addition and measured up to 60 mins by LC-MS/MS analysis. The series is classed as ADME. Particulars: liver microsomes, time < 120 min.
Series [6] concerns the target CYP2C9 (Homo sapiens, UniProt P11712). Kind of series: Inhibition of CYP2C9 in human liver microsome at 10 uM pre-incubated with compound for 10 mins in presence of NADPH-regenerating system by LC-MS/MS analysis relative to control. The series is classed as ADME. Particulars: liver microsomes. On the technique in general: Microsomes from liver hold many membrane-bound enzymes, among them those of drug oxidation.

Series [7] has as its target CYP1A2 (Homo sapiens, UniProt P05177). Kind of series: Inhibition of CYP1A2 in human liver microsome at 10 uM pre-incubated with compound for 10 mins in presence of NADPH-regenerating system by LC-MS/MS analysis relative to control. The series is classed as ADME. Particulars: liver microsomes.
Series [8] can be described thus: Stability in human plasma assessed as half life at 100 uM measured up to 120 mins by LC-MS/MS analysis. The series is classed as ADME, cell-free.
Series [9] relates to HCT-116. The series is described as follows: Antiproliferative activity against human HCT-116 cells assessed as reduction in colony formation incubated for 14 days by crystal violet staining based analysis. The series is classed as functional, cell-based. Particulars: dose 50-400 nM, time 14.0 day.

These results are taken from ChEMBL document CHEMBL6178014, “Discovery and Administration Optimization of Novel Selective CDK9 Inhibitor, 1-7a-B1, for Improved Pharmacokinetics and Antitumor Efficacy In Vivo” (J Med Chem, 2025).

Chain of CDK9/cyclin T1 (O60563 whole entry): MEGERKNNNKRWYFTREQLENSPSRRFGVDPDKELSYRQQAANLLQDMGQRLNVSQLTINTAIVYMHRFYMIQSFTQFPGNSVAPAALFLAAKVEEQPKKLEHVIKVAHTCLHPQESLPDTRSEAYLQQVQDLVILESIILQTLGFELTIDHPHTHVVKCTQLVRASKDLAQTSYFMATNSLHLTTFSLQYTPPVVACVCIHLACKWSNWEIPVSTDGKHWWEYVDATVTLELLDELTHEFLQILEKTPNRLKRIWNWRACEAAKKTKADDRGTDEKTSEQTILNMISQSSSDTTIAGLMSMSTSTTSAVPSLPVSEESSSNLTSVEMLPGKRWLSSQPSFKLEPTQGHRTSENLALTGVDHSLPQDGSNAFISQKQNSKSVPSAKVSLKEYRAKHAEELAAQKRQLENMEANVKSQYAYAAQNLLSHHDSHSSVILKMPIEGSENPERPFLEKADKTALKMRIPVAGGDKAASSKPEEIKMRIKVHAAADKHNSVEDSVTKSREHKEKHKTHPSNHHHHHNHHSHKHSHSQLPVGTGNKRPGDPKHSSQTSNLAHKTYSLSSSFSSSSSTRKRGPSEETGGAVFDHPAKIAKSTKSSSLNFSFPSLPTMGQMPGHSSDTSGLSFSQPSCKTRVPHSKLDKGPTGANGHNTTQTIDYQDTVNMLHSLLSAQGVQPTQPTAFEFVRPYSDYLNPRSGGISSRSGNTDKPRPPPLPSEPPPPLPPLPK
Chain of CDK9/cyclin T1 (P50750 whole entry): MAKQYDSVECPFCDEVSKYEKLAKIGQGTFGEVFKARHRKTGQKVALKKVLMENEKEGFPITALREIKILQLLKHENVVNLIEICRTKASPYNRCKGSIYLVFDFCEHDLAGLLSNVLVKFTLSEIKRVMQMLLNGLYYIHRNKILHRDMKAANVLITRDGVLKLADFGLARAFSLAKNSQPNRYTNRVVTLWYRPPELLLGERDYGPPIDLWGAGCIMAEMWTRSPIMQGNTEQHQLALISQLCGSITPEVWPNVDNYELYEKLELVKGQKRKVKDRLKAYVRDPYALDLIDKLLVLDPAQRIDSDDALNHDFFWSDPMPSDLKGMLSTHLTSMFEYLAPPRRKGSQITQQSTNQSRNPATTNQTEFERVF
Chain of CYP2C9 (P11712 whole entry): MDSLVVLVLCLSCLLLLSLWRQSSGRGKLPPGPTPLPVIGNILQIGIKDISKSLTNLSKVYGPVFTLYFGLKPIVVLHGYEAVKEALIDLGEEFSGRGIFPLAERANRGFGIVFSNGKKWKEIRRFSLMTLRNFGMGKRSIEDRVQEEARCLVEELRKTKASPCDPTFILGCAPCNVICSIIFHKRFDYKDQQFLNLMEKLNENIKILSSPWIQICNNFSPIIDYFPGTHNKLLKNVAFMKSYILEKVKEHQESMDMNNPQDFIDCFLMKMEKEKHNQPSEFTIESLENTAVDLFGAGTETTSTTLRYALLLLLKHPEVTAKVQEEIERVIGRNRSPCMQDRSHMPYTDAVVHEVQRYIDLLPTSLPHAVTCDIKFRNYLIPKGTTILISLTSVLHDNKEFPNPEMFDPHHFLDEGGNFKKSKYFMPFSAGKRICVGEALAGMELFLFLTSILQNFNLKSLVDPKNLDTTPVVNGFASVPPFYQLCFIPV
Chain of CYP1A2 (P05177 whole entry): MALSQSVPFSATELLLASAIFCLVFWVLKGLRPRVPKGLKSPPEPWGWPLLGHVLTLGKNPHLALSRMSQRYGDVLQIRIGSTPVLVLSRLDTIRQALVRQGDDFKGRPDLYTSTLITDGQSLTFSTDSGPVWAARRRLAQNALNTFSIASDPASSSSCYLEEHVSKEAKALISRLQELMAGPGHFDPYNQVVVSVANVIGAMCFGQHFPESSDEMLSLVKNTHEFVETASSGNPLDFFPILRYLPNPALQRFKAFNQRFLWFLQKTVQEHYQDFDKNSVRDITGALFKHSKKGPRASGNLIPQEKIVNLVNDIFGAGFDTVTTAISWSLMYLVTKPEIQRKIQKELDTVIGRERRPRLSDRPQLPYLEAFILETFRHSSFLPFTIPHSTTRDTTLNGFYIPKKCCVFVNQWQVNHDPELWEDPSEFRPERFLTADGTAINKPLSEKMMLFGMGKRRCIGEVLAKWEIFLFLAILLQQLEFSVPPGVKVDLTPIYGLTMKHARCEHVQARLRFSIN

By GI50 is commonly meant the concentration at which growth is held to half of that of the control. As a reminder, the IC50 is the concentration that gives 50% inhibition. With `O=C(Nc1cccc(C(=O)N2CCOCC2)c1)Nc1cc(-c2ccc(F)cc2OCC2CCCCC2)ccn1`, the GI50 in [1] and in [3] was above 1000 nM in each case. Besides, the IC50 in series [2] is 88.1 nM.

Take `O=C(Nc1cccc(C(=O)N2CCOCC2)c1)Nc1cc(-c2ccc(F)c(F)c2)ccn1`: the 50% growth inhibitory concentration (GI50) in series [1] and in [3] was above 1000 nM in each case. In [2], the IC50 is above 50 nM.

`COc1ccccc1-c1ccnc(NC(=O)Nc2cccc(C(=O)N3CCOCC3)c2)c1`: the GI50 in series [1] and in [3] was above 1000 nM in each case. Moreover, the IC50 in [2] came to 45.9 nM.

For orientation: inhibition means the share of the control response that was lost under treatment. For the compound `CCC1(c2ccccc2)NC(=O)N(Cc2ccccc2)C1=O` (single isomer, unassigned; (+)), the inhibition at 10 µM in [4] worked out at 88.3%.

For the compound `O=C(Nc1cccc(C(=O)N2CCOCC2)c1)Nc1cc(-c2cccc(F)c2)ccn1`, the concentration for 50% growth inhibition (GI50) in series [1] and in series [3] was above 1000 nM throughout. For the same compound, the concentration for half-maximal inhibition (IC50) in series [2] is above 50 nM.

`O=C(Nc1cccc(C(=O)N2CCOCC2)c1)Nc1cc(-c2ccc(F)cc2F)ccn1`: the GI50 in series [1] and in [3] was above 1000 nM throughout. Also, the concentration for half-maximal inhibition (IC50) in [2] is above 50 nM.

As for `O=C(Nc1cccc(C(=O)N2CCOCC2)c1)Nc1cc(-c2cccc(Cl)c2)ccn1`, the 50% growth inhibitory concentration (GI50) in [1] and in series [3] was above 1000 nM throughout. In addition, the half-maximal inhibitory concentration (IC50) in series [2] is 35.9 nM.

`CC(C)Oc1cc(F)ccc1-c1ccnc(NC(=O)Nc2ccc(C(=O)N3CCC(F)(F)CC3)cc2)c1`: the GI50 in series [1] and in [3] was above 1000 nM each time. For the same compound, the IC50 in series [2] was above 50 nM.

In the case of `Cc1ccc(-c2ccnc(NC(=O)Nc3cccc(C(=O)N4CCOCC4)c3)c2)cc1`, the GI50 in [1] and in [3] was above 1000 nM in each case. Further, the IC50 in series [2] was above 50 nM.

Broadly, the half-life is how long it takes for the measured level to halve. For the compound `C[C@]12CC[C@H]3[C@@H](CCC4=CC(=O)CC[C@@]43C)[C@@H]1CC[C@@H]2O` [TESTOSTERONE], the half-life at 100 µM in series [5] came to 7.8 min.

On to `CC(C)Oc1cc(F)ccc1-c1ccnc(NC(=O)Nc2cccc(C(=O)N3CCCN(C)CC3)c2)c1`, for which the GI50 in series [1] and in [3] was above 1000 nM in each case. In addition, in series [2], the IC50 was above 50 nM.

With `Nc1ccc(S(=O)(=O)Nc2ccnn2-c2ccccc2)cc1` [SULFAPHENAZOLE], the inhibition at 10 µM in [6] amounted to 87.2%.

As to `CCOc1cc(F)ccc1-c1ccnc(NC(=O)Nc2cccc(C(=O)N3CCOCC3)c2)c1`, the concentration for 50% growth inhibition (GI50) in series [1] and in series [3] was above 1000 nM throughout. Moreover, the half-inhibitory concentration (IC50) in series [2] came out at 30.4 nM.

As to `COc1ccc(-c2ccnc(NC(=O)Nc3cccc(C(=O)N4CCOCC4)c3)c2)cc1`, the GI50 in series [1] and in series [3] was above 1000 nM in each case. Further, the IC50 in series [2] is above 50 nM.

For the compound `CCN1CCN(C(=O)c2ccc(NC(=O)Nc3cc(-c4ccc(F)cc4OC(C)C)ccn3)cc2)CC1`, the 50% growth inhibitory concentration (GI50) in series [1] and in series [3] was above 1000 nM each time. Also, the IC50 in series [2] is above 50 nM.

As for `O=C(Nc1cccc(C(=O)N2CCOCC2)c1)Nc1cc(-c2ccc(F)cc2OCC2CCCC2)ccn1`, the GI50 in series [1] and in series [3] was above 1000 nM throughout. The half-maximal inhibitory concentration (IC50) in series [2] was found to be 59.1 nM.

`CC(C)Oc1cc(F)ccc1-c1ccnc(NC(=O)Nc2ccc(C(=O)N3CCOCC3)cc2)c1`: the GI50 in series [1] and in [3] was above 1000 nM in each case. In addition, the IC50 in [2] was above 50 nM.

Take `CCN1CCN(C(=O)c2cccc(NC(=O)Nc3cc(-c4ccc(F)cc4OC(C)C)ccn3)c2)CC1`: the 50% growth inhibitory concentration (GI50) in series [1] was determined as 570 nM; in [3], 200 nM. The IC50 in series [2] amounted to 16.5 nM.

With `CC(=O)N1CCN(C(=O)c2ccc(NC(=O)Nc3cc(-c4ccc(F)cc4OC(C)C)ccn3)cc2)CC1`, the GI50 in [1] and in [3] was above 1000 nM in each case. Besides, the 50% inhibitory concentration (IC50) in series [2] was above 50 nM.

For `CC(C)Oc1cc(F)ccc1-c1ccnc(NC(=O)Nc2ccc(C(=O)N3CCN(C(C)C)CC3)cc2)c1`, the 50% growth inhibitory concentration (GI50) in [1] and in series [3] was above 1000 nM in each case. In addition, the IC50 in series [2] is above 50 nM.

Regarding `CC(C)Oc1cc(F)ccc1-c1ccnc(NC(=O)Nc2cccc(C(=O)N3CCCC3)c2)c1`, the GI50 in series [1] is 180 nM; in [3] it was above 1000 nM. Besides, the IC50 in series [2] is 35.8 nM.

On to `O=C(Nc1cccc(C(=O)N2CCOCC2)c1)Nc1cc(-c2cc(F)cc(F)c2)ccn1`, for which the GI50 in series [1] and in [3] was above 1000 nM throughout. In addition, the concentration for half-maximal inhibition (IC50) in [2] was above 50 nM.

Consider `O=C(O)Cc1ccccc1Nc1c(Cl)cccc1Cl` [DICLOFENAC], for which the half-life at 100 µM in series [5] turned out to be 6.4 min.

As for `O=C(Nc1cccc(C(=O)N2CCOCC2)c1)Nc1cc(-c2ccc(Cl)cc2F)ccn1`, the GI50 in series [1] and in series [3] was above 1000 nM each time. The IC50 in series [2] was above 50 nM.

Turning to `CC(C)Oc1cc(F)ccc1-c1ccnc(NC(=O)Nc2cccc(C(=O)N3CCOCC3)c2)c1`, the GI50 in series [1] worked out at 990 nM; in [3], 370 nM. In [2], the IC50 came out at 21 nM.

For `O=c1cc(-c2ccccc2)oc2c1ccc1ccccc12` [ALPHA-NAPHTHOFLAVONE], in series [7], the inhibition at 10 µM came out at 88.4%.

Turning to `O=C(Nc1cccc(C(=O)N2CCOCC2)c1)Nc1cc(-c2cc(F)c(F)c(F)c2)ccn1`, the GI50 in series [1] and in series [3] was above 1000 nM each time. In addition, in series [2], the half-inhibitory concentration (IC50) was above 50 nM.

Consider `O=C(Nc1cccc(C(=O)N2CCOCC2)c1)Nc1cc(-c2ccccc2F)ccn1`, for which the GI50 in series [1] and in series [3] was above 1000 nM throughout. The IC50 in series [2] was above 50 nM.

Consider `CC(=O)N1CCN(C(=O)c2cccc(NC(=O)Nc3cc(-c4ccc(F)cc4OC(C)C)ccn3)c2)CC1`, for which the 50% growth inhibitory concentration (GI50) in series [1] and in series [3] was above 1000 nM throughout. Also, the IC50 in [2] was above 50 nM.

`COc1cc(F)ccc1-c1ccnc(NC(=O)Nc2cccc(C(=O)N3CCOCC3)c2)c1`: the GI50 in series [1] and in series [3] was above 1000 nM in each case. For the same compound, the IC50 in series [2] was determined as 27.8 nM.

As for `CC(C)Oc1cc(F)ccc1-c1ccnc(NC(=O)Nc2ccc(C(=O)N3CCN(C)CC3)cc2)c1`, the concentration for 50% growth inhibition (GI50) in series [1] and in series [3] was above 1000 nM each time. Moreover, the IC50 in series [2] is above 50 nM.

As to `CC(C)[N+](C)(CCOC(=O)C1c2ccccc2Oc2ccccc21)C(C)C.[Br-]` [PROPANTHELINE BROMIDE], in series [8], the half-life at 100 µM is 15.6 min.

Consider `CC(C)Oc1cc(F)ccc1-c1ccnc(NC(=O)Nc2cccc(C(=O)N3CCN(C(C)C)CC3)c2)c1`, for which the 50% growth inhibitory concentration (GI50) in series [1] turned out to be 670 nM; in series [3], 960 nM. Moreover, in [2], the half-inhibitory concentration (IC50) was above 50 nM.

As to `CC(C)Oc1cc(F)ccc1-c1ccnc(NC(=O)Nc2ccc(C(=O)N3CCCC3)cc2)c1`, the GI50 in series [1] and in series [3] was above 1000 nM each time. Besides, the 50% inhibitory concentration (IC50) in [2] was above 50 nM.

Turning to `Cc1ncc(-c2ccnc(Nc3ccc(S(C)(=O)=O)cc3)n2)n1C(C)C` [AZD-5438], the Activity result in [9] was “Dose-dependent-effect”. For the same compound, the GI50 in [1] was 700 nM; in series [3], 480 nM.

In the case of `O=C(Nc1cccc(C(=O)N2CCOCC2)c1)Nc1cc(-c2ccc(F)cc2)ccn1`, the GI50 in series [1] and in series [3] was above 1000 nM throughout. Also, the half-maximal inhibitory concentration (IC50) in series [2] was above 50 nM.
